According to paper PMC7274485, “A symbiotic bacterium of shipworms produces a compound with broad spectrum anti-apicomplexan activity” (PLoS Pathogens, 2020):
pEC50: −log10 of the molar value. Where two headings read alike, the source gives them in different places.

What was measured:
Cryptosporidium parvum = test: Nanoluciferase-expressing C. parvum inhibitor response assay in HCT-8 cells; assay type: cell-based; details: HCT-8 cells infected 24 hours, read 48 hours post-treatment, read-out: EC50 against C. parvum
Protocol: We had postulated that secondary metabolites generated by symbiotic bacteria of invertebrates might include compounds that target gregarines, an ancient group of apicomplexans found in most, and perhaps all, invertebrates. The only gregarines known to infect mammals are Cryptosporidium species, gastrointestinal parasites that cause diarrheal disease in humans and other mammals. HCT8 cells were infected with luciferase-expressing Cryptosporidium parvum parasites for 24 hours, then two-fold dilutions of trtE added to the infected cells. 48 hours after the addition of trtE, parasite growth was quantified by luciferase expression. […] To examine the morphology of trtE treated C. parvum parasites, HCT8 cells were infected with C. parvum oocysts for 8 hours. Extracellular parasites were washed off and medium containing 60 nM trtE added to the infected cells. After 12 hours of treatment, infected cells were fixed and processed for IFAs.
C. parvum oocysts expressing nanoluciferase (nLuc) were obtained from the Cryptosporidium Production Laboratory at the University of Arizona and inhibitor response assays were conducted as previously described.

B. bigemina = test: B. bigemina-infected erythrocyte proliferation, SYBR green incorporation; assay type: cell-based; details: Babesia bigemina, infected erythrocytes, 72 hours, read-out: EC50 against B. bigemina
Protocol: B. bovis and B. bigemina inhibitor response assays were adapted from components of [79–81]. B. bovis and B. bigemina parasites were maintained in bovine erythrocytes under microaerophilic stationary phase conditions in vitro as described elsewhere. Prior to use in growth studies parasites were grown in erythrocytes from which leukocytes were depleted. Cultures were set up at 0.20% parasitized erythrocytes, in quadruplicate, in complete medium supplemented with trtE. Final concentration of DMSO in all cultures was 1%, and was consistent throughout. Following 72h growth under 90% nitrogen, 5% oxygen, 5% carbon dioxide cells were harvested by thorough resuspension, and transferred to a black, opaque 96-well plate. Cells were freeze-thawed at -80°C overnight, then mixed with an equal volume of SYBR Green lysis buffer. Lysis buffer was composed of 20 mM Tris, pH 7.5, 5 mM EDTA, 0.008% (w/v) saponin, 0.08% (v/v) NP40, and contained 0.2 μl 10,000x SYBR Green I dye ml^-1 (S7563; Invitrogen; Carlsbad, CA). Plates were incubated for one hour at room temperature in the dark prior to reading in a microplate reader, at 485 nm excitation and 528 nm emission wavelengths.

Theileria equi = Theileria equi 72 hr in vitro parasite growth inhibition assay; assay type: cell-based
Protocol: The effect of trtE on proliferation of T. equi was evaluated in a 72 hr in vitro parasite growth inhibition assay performed as previously described using the USDA Florida strain of T. equi.
A. Bovine turbinate cells infected with luciferase expressing Sarcocystis neurona merozoites were treated with trtE for 24 hours and parasite growth evaluated by luciferase expression. […] B. Theileria equi-infected erythrocytes were incubated with trtE or DMSO vehicle control and proliferation was measured after 72 hours by SYBR green incorporation. Percent proliferation was calculated relative to DMSO treated controls. […] (DOCX) Click here for additional data file.

B. bovis = test: Immunofluorescence assay of B. bovis CE11/p2xHA-glmS-gfp-bsd infected erythrocytes; assay type: cell-based, Babesia bovis; details: 50 nM trtE, 24 hours
Protocol: To evaluate the morphological changes in one of the intraerythrocytic parasites, B. bovis CE11/p2xHA-glmS-gfp-bsd parasites were exposed to 50 nM trtE or DMSO for 24 hours then fixed and processed for IFA. This B. bovis line expresses a soluble green fluorescent protein-blasticidin deaminase fusion protein (gfp-bsd),that was labeled with anti-GFP antibodies to visualize the parasite cytoplasm (Fig 3E, green fluorescence). […] Mis-localization of both the soluble gfp-bsd fusion protein (green label) and the RAP-1 protein (red label) was also observed. […]
For all IFAs, the investigator reading the slides and collecting images was blind to the sample treatment. […] 24 hours post treatment, infected cells were fixed with methanol, and parasites detected with rabbit anti-SAG1 antibody for T. gondii or rabbit anti-gp15 for C. parvum as we have described previously. […] This CE11 line is transiently transfected with a plasmid that expresses nanoluciferase from a B. divergens promoter and green fluorescence protein-blasticidin (gfp-bsd) from the selection cassette. […] Cells were incubated with rabbit anti-GFP (GenScript; Piscataway, NJ; cat. #A01388) and mouse monoclonal MBOC79B1 (a gift from G. Palmer) anti-BbRAP-1 protein antibodies, and reactions detected with goat anti-rabbit IgG-Alexafluor 488 and goat anti-mouse IgG-Alexafluor 594 antibodies (Invitrogen; Carlsbad, CA). […]

[1] = test system: HCT-8 colonic cancer cells
Protocol: (§1) Toxicity was evaluated by measuring cellular ATP concentrations.
(§2) HCT8, HFF and BT cells were seeded in 96-well plates to achieve 20–30% confluence after 24 hours of growth.

Gram negative bacteria = details: at μM concentrations; cited from earlier work
Bovine turbinate cells = test: Cytotoxicity for host cells, cellular ATP (CellTiter-Glo): BT cells
Protocol: as §1, §2

[2] = 20–30% confluency, 24 hours, cellular ATP

Work on `CC1CCC=CC=CCCC(O)CC(=O)CC2CCC(C)C3(O2)O[B-]24OC(C(=O)O1)C1(OC(CCC1C)CC(=O)CC(O)CCC=CC=CCCC(C)OC(=O)C3O2)O4` (stereo not shown) [trtE, tartrolon E] yielded a pEC50 (Cryptosporidium parvum) of 8.41, a pEC50 (B. bigemina) of 8.03 and a pEC50 (Theileria equi; Erythrocyte, infected erythrocytes, 72 hours, read-out: EC50 against T. equi) of 9.41. For the same molecule, the pEC50 (Theileria equi; Table 1, rounded, read-out: EC50 against T. equi (Table 1)) was 9.40, the “Morphology of trtE treated B. bovis (IFA)” value (B. bovis) was “distinctly rounded morphology” and the “TC50 (median toxic concentration) for HCT-8” value [1, 2] was 6300 nM. For the same molecule, the “Selectivity Index, C. parvum vs HCT-8” value ([1]; TC50/EC50) was 1636, the “Activity of trtE against Gram negative bacteria” value (Gram negative bacteria) was “active” and the “TC50 (median toxic concentration) for BT cells” value (Bovine turbinate cells; [2]) was 16800 nM. The “Selectivity Index, S. neurona vs Bovine turbinate cells” value (Bovine turbinate cells; TC50/EC50) was 1302.
